Test results: PubChem BioAssay (NCI)
Values joined by “and” are separate entries in the source; they are usually repeats but may differ in a detail not shown here. Equal entries are not always repeated.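 96-well plates; 48 h exposure; 5 concentrations. Endpoints by linear interpolation between flanking doses. Not reached: highest tested concentration assigned. GI50 = concentration required for 50% inhibition of growth. TGI: concentration producing complete growth inhibition.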

Tests used:
Assay in all cases: DTP human tumour cell line panel, 48 h
BT-549 breast = test system: BT-549 breast
DLD-1 colon = test system: DLD-1 colon
DMS 114 small cell lung = test system: DMS 114 small cell lung
M19-MEL melanoma = test system: M19-MEL melanoma
DMS 273 small cell lung = test system: DMS 273 small cell lung
RXF-631 renal = test system: RXF-631 renal
SNB-78 CNS = test system: SNB-78 CNS
XF 498 CNS = test system: XF 498 CNS
MDA-N = test system: MDA-N

SMILES | GI50 (BT-549 breast) | TGI (BT-549 breast) | TGI (DLD-1 colon) [µM] | TGI (DMS 114 small cell lung) [µM] | TGI (M19-MEL melanoma) [µM] | TGI (DMS 273 small cell lung) [µM] | TGI (SNB-78 CNS) [µM] | other results
Cn1cc(-c2nc(-c3c[nH]c4ncccc34)cs2)c2ccccc21 | 23.7 µM | > 100 µM |  |  |  |  |  | 
Cc1ccc(/C=C(\NC(=O)c2ccccc2)c2nc3ccccc3[nH]2)cc1 |  |  | > 100 | > 100 | > 100 |  |  | 
O=Nc1c(-c2c(O)[nH]c3cc(Br)ccc23)[nH]c2ccccc12 | 0.716 µM | 2.79 µM |  |  |  |  |  | 
Cc1[nH]c2ccccc2c1CC/C(=N\Nc1ccccc1)c1ccccc1 |  |  | > 100 |  |  | > 100 | > 100 | TGI (RXF-631 renal): > 100 µM; TGI (XF 498 CNS): > 100 µM
COc1cc(/C=C/c2cc(/C=C/c3ccc(O)c(OC)c3)n(C(=O)Nc3ccccc3Cl)n2)ccc1O | 0.303 µM | 2.75 µM |  |  |  |  |  | 
O=c1cnnc(N/N=C/c2ccccc2O)[nH]1 | 6.36 µM | > 100 µM |  |  |  |  |  | 
CC(C)(C)c1cc(NC(=O)Nc2ccc(-c3cn4c(n3)sc3cc(OCCN5CCOCC5)ccc34)cc2)no1 | 3.52 µM and 0.819 µM and 7.47 µM | 20.3 µM and 5.16 µM and > 10 µM |  |  |  |  |  | 
CSc1ccc2c(cc1=O)[C@@H](NC(=O)c1ccc(Cl)cc1)CCc1cc(O)c(O)c(O)c1-2 |  |  | 72.7 | > 100 | > 100 | > 100 | > 100 | 
COc1ccc(C(=NN=C(N)N)c2ccc(OC)cc2)cc1 | 3.94 µM | 15.6 µM |  |  |  |  |  | 
CCC1C(C(=O)Nc2ccccc2C)=C(C)NC(C)=C1c1ccccc1C (configuration not stated) |  |  | > 59.7 |  | > 100 | > 83.2 | > 100 | TGI (XF 498 CNS): > 100 µM
O=C(Cc1nc2ccccc2o1)C(=O)Nc1cccc(Cl)c1 |  |  | > 100 | > 100 | > 100 |  | > 100 | TGI (XF 498 CNS): > 100 µM
O=C(c1ccc(C(F)(F)F)c(Cl)c1)N(Cc1ccc(Cl)cc1)c1ccc(-c2cc(C(F)(F)F)[nH]n2)c(O)c1 | 1.31 µM | 3.99 µM |  |  |  |  |  | 
CCN(CC)CC(C)C(=O)/C=C/c1ccc(C)cc1 (configuration not stated) |  |  | 3.16 | 3.2 | 3.04 | 5.96 | 23.1 | TGI (XF 498 CNS): 2.98 µM
O=C(NCCCl)Nc1cccnc1 |  |  |  |  |  |  |  | TGI (MDA-N): 67.9 µM
COc1cc2oc(-c3ccccc3)cc(=O)c2c(O)c1C |  |  | > 100 | > 100 | > 100 | > 100 | > 100 | 
O=C(/C=C/c1ccccc1O)c1ccc([N+](=O)[O-])cc1 |  |  | 26.3 | 24.7 | 36.5 | 52.6 | 89.1 | TGI (RXF-631 renal): 89.9 µM; TGI (XF 498 CNS): 32.7 µM
COc1ccc2c3c1OC1C(OC)(OC)C=C[C@@]4(Br)[C@@H](C2)N(CC2CC2)CC[C@]314 (some centres not stated) |  |  |  |  |  |  |  | TGI (MDA-N): > 100 µM
CSc1nc2nn(Cc3ccccc3)cc2c(=O)[nH]1 |  |  | > 100 | > 100 | > 100 | > 100 | > 100 | 
